Values quoted from earlier work in patent US20080095814A1, “Compositions Having a High Antiviral and Antibacterial Efficacy” (THE DIAL CORPORATION, priority 2004, published 2008).

Tested on: rhinoviral infections
Details: subjects who used iodine products

II [iodine]
colds in users versus placebo users: significantly fewer colds than placebo users
